# How the values were obtained:
# SARS-CoV-2 [1] = type: cell-based; conditions: for antiviral activity against SARS-CoV-2 in iAECs: iAEC2
# SARS-CoV-2 [2] = conditions: cited from earlier work
# SARS-CoV-2 [3] = test: Hit validation across cell systems; type: cell-based; conditions: Huh7, LNCaP, Caco-2, Vero E6, iAEC2
# SARS-CoV-2 [4] = test: Viral binding assay on Huh7 cells; type: cell-based; conditions: lactoferrin 1,250 and 6,250 nM, remdesivir 10 nM, NaClO3 7 d
# SARS-CoV-2 [5] = test: microbe, parasite or virus in culture; type: cell-based; conditions: Severe acute respiratory syndrome coronavirus 2, Huh-7, 48 h
# SARS-CoV-2 [6] = test: SARS-CoV-2 infection of Caco-2 cells with MEK inhibitors; type: cell-based; conditions: Caco-2, 10 µM
# SARS-CoV-2 [7] = type: cell-based
# SARS-CoV-2 [8] = type: cell-based; conditions: Huh7, MOI of 1, 1,000 nM, 24 and 48 h p.i., versus untreated
compound,measurement,setting,value
CC(C)/N=c1\cc2n(-c3ccc(Cl)cc3)c3ccccc3nc-2cc1Nc1ccc(Cl)cc1 [CLOFAZIMINE],antiviral activity against SARS-CoV-2 in iAECs,SARS-CoV-2 [1],dose-responsive antiviral activity
same,viral infection in a hamster model of disease,SARS-CoV-2 [2],block viral infection
CCc1nc(C(N)=O)c(Nc2ccc(N3CCC(N4CCN(C)CC4)CC3)c(OC)c2)nc1NC1CCOCC1 [Gilteritinib],antiviral activity against SARS-CoV-2 in iAECs,SARS-CoV-2 [1],dose-responsive antiviral activity
CC(C)[N+]1(C)[C@@H]2CC[C@H]1C[C@@H](OC(=O)C(CO)c1ccccc1)C2 (some centres unmarked) [Ipratropium Bromide],antiviral activity against SARS-CoV-2 in iAECs,SARS-CoV-2 [1],dose-responsive antiviral activity
same,efficacy across all tested cell systems,SARS-CoV-2 [3],maintained efficacy across all tested cell systems
O=C(NC1CCN(CCCCC2(C(=O)NCC(F)(F)F)c3ccccc3-c3ccccc32)CC1)c1ccccc1-c1ccc(C(F)(F)F)cc1 [Lomitapide],antiviral activity against SARS-CoV-2 in iAECs,SARS-CoV-2 [1],dose-responsive antiviral activity
same,efficacy across all tested cell systems,SARS-CoV-2 [3],maintained efficacy across all tested cell systems
[Na+].[O-][Cl+2]([O-])[O-] [NaClO3],SARS-CoV-2 attachment to Huh7 cells,SARS-CoV-2 [4],reduced
CCC(CC)COC(=O)[C@H](C)N[P@](=O)(OC[C@H]1O[C@@](C#N)(c2ccc3c(N)ncnn23)[C@H](O)[C@@H]1O)Oc1ccccc1 [Remdesivir],antiviral activity at high MOI,SARS-CoV-2 [1],retained antiviral activity
same,antiviral activity against SARS-CoV-2 in iAECs,SARS-CoV-2 [1],dose-responsive antiviral activity
same,efficacy across all tested cell systems,SARS-CoV-2 [3],maintained efficacy across all tested cell systems
same,IC50,SARS-CoV-2 [5],6.7 nM
Cc1cc(OCCN2CCOCC2)nn1-c1ccc2ccccc2c1 [S1RA],antiviral activity at high MOI,SARS-CoV-2 [1],retained antiviral activity
same,antiviral activity against SARS-CoV-2 in iAECs,SARS-CoV-2 [1],dose-responsive antiviral activity
CC(NC(=O)[C@H](Cc1ccccc1)NC(=O)OCc1ccccc1)C(=O)CF (some centres unmarked) [Z-FA-FMK],efficacy across all tested cell systems,SARS-CoV-2 [3],maintained efficacy across all tested cell systems
Cn1cnc2c(F)c(Nc3ccc(Br)cc3F)c(C(=O)NOCCO)cc21 [binimetinib],exacerbation of infection,SARS-CoV-2 [6],exacerbation effect was observed
same,increase of viral infection,SARS-CoV-2 [7],greater than twofold increase
CCN(CC)CCCC(C)Nc1ccnc2cc(Cl)ccc12 (centres unmarked) [chloroquine],concentrations at which efficacious,"SARS-CoV-2 [7]; Huh7, dose-response confirmation",above 1 µM
O=C(c1ccc(F)c(F)c1Nc1ccc(I)cc1F)N1CC(O)([C@@H]2CCCCN2)C1 [cobimetinib],increase of viral infection,SARS-CoV-2 [7],greater than twofold increase
same,percentage of viral RNA-positive cells,SARS-CoV-2 [8],"increased at 48 h p.i., but not at 24 h p.i."
CC(=O)Nc1cccc(-n2c(=O)n(C3CC3)c(=O)c3c(Nc4ccc(I)cc4F)n(C)c(=O)c(C)c32)c1 [trametinib],exacerbation of infection,SARS-CoV-2 [6],exacerbation effect was observed
same,increase of viral infection,SARS-CoV-2 [7],greater than twofold increase
"transferrin: transferrin (Sigma-Aldrich; T2036), control to rule out iron chelation",antiviral activity (iron chelation control),"SARS-CoV-2 [7]; Huh7, 6,250 nM",inactive
